According to patent US10405547B2, “Substituted cyclic amides as herbicides” (FMC Corporation, priority 2015, dated 2019):

What was measured:
Type in all cases: in vivo
corn (Zea mays) = assay: Test A postemergence, corn; settings: visual injury, 0 to 100 scale (0 no effect, 100 complete control), approximately 10 days
Summary of the method: (§1)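 Greenhouse assay; ~10 d; visual injury vs untreated control, scored 0 = no effect through 100 = complete control. Post-emergent seedlings at one–two leaves; pre-emergent seeds in loam/sand given a directed soil spray.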

[1] = test system: ryegrass, Italian (Lolium multiflorum); assay: Test A postemergence, Italian ryegrass; settings: visual injury, 0 to 100 scale (0 no effect, 100 complete control), approximately 10 days
Summary of the method: as §1

[2] = test system: galium (catchweed bedstraw, Galium aparine); assay: Test A postemergence, galium; settings: visual injury, 0 to 100 scale (0 no effect, 100 complete control), approximately 10 days
Summary of the method: as §1

kochia (Kochia scoparia) [3] = assay: Test A postemergence, kochia; settings: visual injury, 0 to 100 scale (0 no effect, 100 complete control), approximately 10 days
Summary of the method: as §1

[4] = test system: foxtail, giant (Setaria faberii); assay: Test A preemergence, giant foxtail; settings: 0 to 100 scale (0 no effect, 100 complete control)
Summary of the method: as §1

[5] = test system: foxtail, giant (Setaria faberii); assay: Test A postemergence, giant foxtail; settings: visual injury, 0 to 100 scale (0 no effect, 100 complete control), approximately 10 days
Summary of the method: as §1

[6] = test system: barnyardgrass (Echinochloa crus-galli); assay: Test A preemergence, barnyardgrass; settings: 0 to 100 scale (0 no effect, 100 complete control)
Summary of the method: as §1

[7] = test system: sedge, umbrella (small-flower umbrella sedge, Cyperus difformis); assay: Test B flooded paddy test, umbrella sedge; settings: applied to paddy water, visual rating after 13 to 15 days, scale 0 (no effect) to 100 (complete control)
Summary of the method: (§2)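 Greenhouse pots flooded to 3 cm above soil at time of treatment received compound via the water, which stayed at that level.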

[8] = test system: barnyardgrass (Echinochloa crus-galli); assay: Test A postemergence, barnyardgrass; settings: visual injury, 0 to 100 scale (0 no effect, 100 complete control), approximately 10 days
Summary of the method: as §1

[9] = test system: ragweed (common ragweed, Ambrosia elatior); assay: Test A preemergence, ragweed; settings: 0 to 100 scale (0 no effect, 100 complete control)
Summary of the method: as §1

rice (Oryza sativa) = assay: Test B flooded paddy test, rice; settings: applied to paddy water, visual rating after 13 to 15 days, scale 0 (no effect) to 100 (complete control)
Summary of the method: as §2

[10] = test system: barnyardgrass (Echinochloa crus-galli); assay: Test B flooded paddy test, barnyardgrass; settings: applied to paddy water, visual rating after 13 to 15 days, scale 0 (no effect) to 100 (complete control)
Summary of the method: as §2

[11] = test system: pigweed (Amaranthus retroflexus); assay: Test A postemergence, pigweed; settings: visual injury, 0 to 100 scale (0 no effect, 100 complete control), approximately 10 days
Summary of the method: as §1

[12] = test system: ragweed (common ragweed, Ambrosia elatior); assay: Test A postemergence, ragweed; settings: visual injury, 0 to 100 scale (0 no effect, 100 complete control), approximately 10 days
Summary of the method: as §1

[13] = test system: blackgrass (Alopecurus myosuroides); assay: Test A postemergence, blackgrass; settings: visual injury, 0 to 100 scale (0 no effect, 100 complete control), approximately 10 days
Summary of the method: as §1

[14] = test system: ryegrass, Italian (Lolium multiflorum); assay: Test A preemergence, Italian ryegrass; settings: 0 to 100 scale (0 no effect, 100 complete control)
Summary of the method: as §1

kochia (Kochia scoparia) [15] = assay: Test A preemergence, kochia; settings: 0 to 100 scale (0 no effect, 100 complete control)
Summary of the method: as §1

[16] = test system: wheat (Triticum aestivum); assay: Test A postemergence, wheat; settings: visual injury, 0 to 100 scale (0 no effect, 100 complete control), approximately 10 days
Summary of the method: as §1

[17] = test system: pigweed (Amaranthus retroflexus); assay: Test A preemergence, pigweed; settings: 0 to 100 scale (0 no effect, 100 complete control)
Summary of the method: as §1

[18] = test system: ducksalad (Heteranthera limosa); assay: Test B flooded paddy test, ducksalad; settings: applied to paddy water, visual rating after 13 to 15 days, scale 0 (no effect) to 100 (complete control)
Summary of the method: as §2

| Compound | Plant response rating, Corn (corn (Zea mays); 125 g ai/ha) | Plant response rating, Corn (corn (Zea mays); 500 g ai/ha) | Plant response rating, Ryegrass, Italian ([1]; 125 g ai/ha) | Plant response rating, Ryegrass, Italian ([1]; 500 g ai/ha) | Plant response rating, Galium ([2]; 125 g ai/ha) | Plant response rating, Galium ([2]; 500 g ai/ha) | Plant response rating, Kochia (kochia (Kochia scoparia) [3]; 125 g ai/ha) | Plant response rating, Kochia (kochia (Kochia scoparia) [3]; 500 g ai/ha) | Plant response rating, Foxtail, Giant ([4]; 125 g ai/ha) | Plant response rating, Foxtail, Giant ([4]; 500 g ai/ha) | Plant response rating, Foxtail, Giant ([5]; 125 g ai/ha) | Plant response rating, Foxtail, Giant ([5]; 500 g ai/ha) | Plant response rating, Barnyardgrass ([6]; 125 g ai/ha) | Plant response rating, Barnyardgrass ([6]; 500 g ai/ha) | Plant response rating, Barnyardgrass ([8]; 125 g ai/ha) | Plant response rating, Barnyardgrass ([8]; 500 g ai/ha) | Plant response rating, Ragweed ([9]; 125 g ai/ha) | Plant response rating, Ragweed ([9]; 500 g ai/ha) | Plant response rating, Pigweed ([11]; 125 g ai/ha) | Plant response rating, Pigweed ([11]; 500 g ai/ha) | further results |
| --- | --- | --- | --- | --- | --- | --- | --- | --- | --- | --- | --- | --- | --- | --- | --- | --- | --- | --- | --- | --- | --- |
| O=C1NCC(c2cccc(Oc3ccccn3)c2)C1C(=O)Nc1ccc(F)c(F)c1F (centres unmarked) [Compound 42] | 0 | 0 | 0 | 0 | 0 | 30 | 0 | 0 | 80 | 90 | 50 | 70 | 40 | 80 | 40 | 60 | 0 | 0 | 0 | 0 | Plant response rating, Sedge, Umbrella (Flood) ([7]; 500 g ai/ha): 0; Plant response rating, Rice (Flood) (rice (Oryza sativa); 500 g ai/ha): 0; Plant response rating, Barnyardgrass (Flood) ([10]; 500 g ai/ha): 0; Plant response rating, Ragweed ([12]; 125 g ai/ha): 0; Plant response rating, Ragweed ([12]; 500 g ai/ha): 0; Plant response rating, Blackgrass ([13]; 125 g ai/ha): 0; Plant response rating, Blackgrass ([13]; 500 g ai/ha): 0; Plant response rating, Ryegrass, Italian ([14]; 125 g ai/ha): 0; Plant response rating, Ryegrass, Italian ([14]; 500 g ai/ha): 0; Plant response rating, Kochia (kochia (Kochia scoparia) [15]; 125 g ai/ha): 0; Plant response rating, Kochia (kochia (Kochia scoparia) [15]; 500 g ai/ha): 0; Plant response rating, Wheat ([16]; 125 g ai/ha): 0; Plant response rating, Wheat ([16]; 500 g ai/ha): 0; Plant response rating, Pigweed ([17]; 125 g ai/ha): 0; Plant response rating, Pigweed ([17]; 500 g ai/ha): 10; Plant response rating, Ducksalad (Flood) ([18]; 500 g ai/ha): 80 |
| CN1CC(c2cccc(OC(F)(F)C(F)OC(F)(F)F)c2)C(C(=O)Nc2cccc(F)c2F)C1=O (centres unmarked) [Compound 48] | 0 | 40 | 0 | 40 | 60 | 60 | 30 | 70 | 80 | 90 | 60 | 80 | 80 | 90 | 20 | 50 | 0 | 0 | 60 | 90 | Plant response rating, Sedge, Umbrella (Flood) ([7]; 250 g ai/ha): 0; Plant response rating, Rice (Flood) (rice (Oryza sativa); 250 g ai/ha): 0; Plant response rating, Barnyardgrass (Flood) ([10]; 250 g ai/ha): 0; Plant response rating, Ragweed ([12]; 125 g ai/ha): 0; Plant response rating, Ragweed ([12]; 500 g ai/ha): 0; Plant response rating, Blackgrass ([13]; 125 g ai/ha): 0; Plant response rating, Blackgrass ([13]; 500 g ai/ha): 0; Plant response rating, Ryegrass, Italian ([14]; 125 g ai/ha): 30; Plant response rating, Ryegrass, Italian ([14]; 500 g ai/ha): 30; Plant response rating, Kochia (kochia (Kochia scoparia) [15]; 125 g ai/ha): 0; Plant response rating, Kochia (kochia (Kochia scoparia) [15]; 500 g ai/ha): 20; Plant response rating, Wheat ([16]; 125 g ai/ha): 0; Plant response rating, Wheat ([16]; 500 g ai/ha): 30; Plant response rating, Pigweed ([17]; 125 g ai/ha): 70; Plant response rating, Pigweed ([17]; 500 g ai/ha): 70; Plant response rating, Ducksalad (Flood) ([18]; 250 g ai/ha): 80 |
| CON=Cc1cccc(C2CN(C)C(=O)C2C(=O)Nc2ccccc2F)c1 (centres unmarked) [Compound 53, N-(2-fluorophenyl)-4-[3-[(methoxyimino)methyl]phenyl]-1-methyl-2-oxo-3-pyrrolidinecarboxamide] | 0 | 0 | 0 | 0 | 0 | 30 | 0 | 0 | 90 | 90 | 80 | 90 | 90 | 90 | 70 | 90 | 0 | 0 | 0 | 0 | Plant response rating, Sedge, Umbrella (Flood) ([7]; 250 g ai/ha): 0; Plant response rating, Rice (Flood) (rice (Oryza sativa); 250 g ai/ha): 0; Plant response rating, Barnyardgrass (Flood) ([10]; 250 g ai/ha): 30; Plant response rating, Ragweed ([12]; 125 g ai/ha): 0; Plant response rating, Ragweed ([12]; 500 g ai/ha): 0; Plant response rating, Blackgrass ([13]; 125 g ai/ha): 0; Plant response rating, Blackgrass ([13]; 500 g ai/ha): 20; Plant response rating, Ryegrass, Italian ([14]; 125 g ai/ha): 0; Plant response rating, Ryegrass, Italian ([14]; 500 g ai/ha): 0; Plant response rating, Kochia (kochia (Kochia scoparia) [15]; 125 g ai/ha): 60; Plant response rating, Kochia (kochia (Kochia scoparia) [15]; 500 g ai/ha): 70; Plant response rating, Wheat ([16]; 125 g ai/ha): 0; Plant response rating, Wheat ([16]; 500 g ai/ha): 0; Plant response rating, Pigweed ([17]; 125 g ai/ha): 0; Plant response rating, Pigweed ([17]; 500 g ai/ha): 0; Plant response rating, Ducksalad (Flood) ([18]; 250 g ai/ha): 70 |
| CN(C)N=Cc1cccc(C2CN(C)C(=O)C2C(=O)Nc2ccccc2F)c1 (centres unmarked) [Compound 54] | 0 | 0 | 0 | 0 | 0 | 0 | 0 | 0 | 0 | 70 | 0 | 20 | 0 | 20 | 0 | 30 | 0 | 0 | 0 | 0 | Plant response rating, Sedge, Umbrella (Flood) ([7]; 250 g ai/ha): 0; Plant response rating, Rice (Flood) (rice (Oryza sativa); 250 g ai/ha): 0; Plant response rating, Barnyardgrass (Flood) ([10]; 250 g ai/ha): 0; Plant response rating, Ragweed ([12]; 125 g ai/ha): 0; Plant response rating, Ragweed ([12]; 500 g ai/ha): 0; Plant response rating, Blackgrass ([13]; 125 g ai/ha): 0; Plant response rating, Blackgrass ([13]; 500 g ai/ha): 0; Plant response rating, Ryegrass, Italian ([14]; 125 g ai/ha): 0; Plant response rating, Ryegrass, Italian ([14]; 500 g ai/ha): 0; Plant response rating, Kochia (kochia (Kochia scoparia) [15]; 125 g ai/ha): 0; Plant response rating, Kochia (kochia (Kochia scoparia) [15]; 500 g ai/ha): 0; Plant response rating, Wheat ([16]; 125 g ai/ha): 0; Plant response rating, Wheat ([16]; 500 g ai/ha): 0; Plant response rating, Pigweed ([17]; 125 g ai/ha): 0; Plant response rating, Pigweed ([17]; 500 g ai/ha): 0; Plant response rating, Ducksalad (Flood) ([18]; 250 g ai/ha): 0 |
| O=C1NCC(c2ccccc2Cn2ccc(C(F)(F)F)n2)C1C(=O)Nc1cccc(F)c1F (centres unmarked) [Compound 57] | 30 | 30 | 0 | 0 | 0 | 20 | 0 | 20 | 60 | 90 | 40 | 70 | 40 | 90 | 0 | 60 | 0 | 0 | 0 | 20 | Plant response rating, Sedge, Umbrella (Flood) ([7]; 250 g ai/ha): 0; Plant response rating, Rice (Flood) (rice (Oryza sativa); 250 g ai/ha): 0; Plant response rating, Barnyardgrass (Flood) ([10]; 250 g ai/ha): 0; Plant response rating, Ragweed ([12]; 125 g ai/ha): 0; Plant response rating, Ragweed ([12]; 500 g ai/ha): 30; Plant response rating, Blackgrass ([13]; 125 g ai/ha): 0; Plant response rating, Blackgrass ([13]; 500 g ai/ha): 30; Plant response rating, Ryegrass, Italian ([14]; 125 g ai/ha): 0; Plant response rating, Ryegrass, Italian ([14]; 500 g ai/ha): 0; Plant response rating, Kochia (kochia (Kochia scoparia) [15]; 500 g ai/ha): 0; Plant response rating, Wheat ([16]; 125 g ai/ha): 0; Plant response rating, Wheat ([16]; 500 g ai/ha): 0; Plant response rating, Pigweed ([17]; 125 g ai/ha): 0; Plant response rating, Pigweed ([17]; 500 g ai/ha): 0; Plant response rating, Ducksalad (Flood) ([18]; 250 g ai/ha): 0 |
